Data published in patent US20140066385A1, “METHOD FOR TREATING CANCER BY COMBINED USE OF DRUGS” (Astellas Pharma Inc., priority 2011, published 2014).

Tests used:
Format in all cases: in vivo, nude mice
[1] = tested on: human gastric cancer (NCI-N87); assay: Example 5: FK330 with paclitaxel in NCI-N87 tumor-bearing mice; details: for tumor volume on the last day of experiment: NCI-N87, Day 56, mean±SEM
Method: (§1) Preparation of the test substances was carried out in the same manner as in Example 2.
(§2) Human gastric cancer-derived NCI-N87 (CRL-5822) was obtained from American Type Culture Collection (VA, USA), MKN-28 (JCRB0253) was obtained from Health Science Research Resources Bank (HSRRB), and AZ-521 (RCB2087) was obtained from Riken BRC. NCI-N87 and MKN-28 cells were cultured under the conditions of 37° C. and 5% CO2 by using RPMI1640 medium containing 10% heat-inactivated fetal bovine serum (FBS), and AZ-521 cells were cultured under the conditions of 37° C. and 5% CO2 by using DMEM medium containing 10% heat-inactivated FBS. The cells were harvested with trypsin and were suspended in PBS at 6×10^7 cells/mL, and the suspension was mixed with an equal amount of Matrigel (trade name) Basement Membrane Matrix (manufactured by Becton Dickinson Co., Bedford, Mass., USA).
(§3) Five-week old male nude mice (CAnN Cg-Foxn1nu/CrlCrlj(nu/nu)) were purchased from Charles River Laboratories Japan, Inc. (Japan, Kanagawa). The animals were raised under specific pathogen-free (SPF) conditions throughout the test period by feeding standard feedstuff and drinking water. The cultured cells were subcutaneously inoculated into the dorsal region of the nude mice at a concentration of 3×10^6 cells/0.1 mL/mouse. […]
(§4) Every 2 to 4 days, the body weight and the tumor diameters, determined by using a digital caliper, were measured. The tumor volume was calculated from the calculation formula for ellipsoid volume of (major axis×[minor axis]^2×0.52).
(§5) The results are expressed as the mean value (Mean)±standard error (SEM). Using the actual measured values of the tumor volume at each measurement time point, an unpaired statistical test (Student's t-test) of the difference between two groups was carried out between a single administration group and a combined use group. […]

[2] = tested on: human non-small cell lung cancer (Calu-6); assay: Example 3: dose dependency of FK330 in enhancing paclitaxel in Calu-6 tumor-bearing mice; details: Day 59; for tumor volume at the end of the study: mean±SEM
Method: Preparation of the test substances and conditioning of the cells were carried out in the same manner as in Example 2.
Five-week old male nude mice (CAnN Cg-Foxn1nu/CrlCrlj(nu/nu)) were purchased from Charles River Laboratories Japan, Inc. (Japan, Kanagawa). The animals were raised under specific pathogen-free (SPF) conditions throughout the test period by feeding standard feedstuff and drinking water. The cultured cells were subcutaneously inoculated into the dorsal region of the nude mice at a concentration of 3×10^6 cells/0.1 mL/mouse. Nude mice which had the tumor volumes (major axis×[minor axis]^2×0.52) ranging from 123.3 mm^3 to 274.4 mm^3 were assigned by using SAS to minimize the fluctuation in the tumor volume between the groups and within the group.
The first day of administration was designated as Day 0, and observation was made until Day 59. The respective groups (n=5) were treated as follows. FK330 was orally gavaged in an amount of 5 mL/kg, and paclitaxel was administered intravenously through the tail vein in an amount of 10 mL/kg. Paclitaxel was continuously administered from Day 0 to Day 5, and then was withdrawn for 21 days. This was defined as one cycle, and administration was carried out up to two cycles.
Paclitaxel single administration group: Paclitaxel 10 mg/kg/day (continuously administered for six days from Day 0 in Cycle 1, and continuously administered for 6 days from Day 27 in Cycle 2)
FK330 30 mg/kg bid (60 mg/kg/day)+paclitaxel 10 mg/kg/day (continuously administered for 6 days from Day 0 in Cycle 1, and continuously administered for 6 days from Day 27 in Cycle 2)
FK330 60 mg/kg bid (120 mg/kg/day)+paclitaxel 10 mg/kg/day (continuously administered for 6 days from Day 0 in Cycle 1, and continuously administered for 6 days from Day 27 in Cycle 2)
FK330 100 mg/kg bid (200 mg/kg/day)+paclitaxel 10 mg/kg/day (continuously administered for 6 days from Day 0 in Cycle 1, and continuously administered for 6 days from Day 27 in Cycle 2)
FK330 was orally gavaged (5 mL/kg) twice a day at an interval of 6 to 8 hours. Paclitaxel was administered by intravenous bolus injection (10 mL/kg) through the tail vein 2 to 4 hours after the administration of FK330.
as §4

[3] = tested on: human gastric cancer (MKN-28); assay: Example 5: FK330 with paclitaxel in MKN-28 tumor-bearing mice; details: for tumor volume on the last day of experiment: MKN-28, Day 84, mean±SEM
Method: as §1, §2, §3, §4, §5

[4] = combined use group paclitaxel + FK330 100 mg/kg bid

| SMILES | tumor volume on the last day of experiment [1, 4] | tumor volume decrease compared with the paclitaxel-only group ([1]; NCI-N87, last day, FK330 100 mg/kg bid + paclitaxel, P<0.03) | tumor volume reduction ratio compared with the paclitaxel-only group ([2]; FK330 30 mg/kg bid + paclitaxel 10 mg/kg/day) | tumor volume at the end of the study ([2]; FK330 30 mg/kg bid combined use group with paclitaxel 10 mg/kg/day) | tumor volume reduction ratio compared with the paclitaxel-only group ([2]; FK330 60 mg/kg bid + paclitaxel 10 mg/kg/day) | tumor volume at the end of the study ([2]; FK330 60 mg/kg bid combined use group with paclitaxel 10 mg/kg/day) | tumor volume reduction ratio compared with the paclitaxel-only group ([2]; FK330 100 mg/kg bid + paclitaxel 10 mg/kg/day) | tumor volume at the end of the study ([2]; FK330 100 mg/kg bid combined use group with paclitaxel 10 mg/kg/day) | tumor volume on the last day of experiment [3, 4] | tumor volume decrease compared with the paclitaxel-only group ([3]; MKN-28, last day, FK330 100 mg/kg bid + paclitaxel, P=0.08) | tumor volume on the last day of experiment ([1]; paclitaxel-only group 10 mg/kg/day i.v., two cycles) | tumor volume at the end of the study ([2]; paclitaxel-only group, 10 mg/kg/day i.v., two cycles) | tumor volume on the last day of experiment ([3]; paclitaxel-only group 10 mg/kg/day i.v., three cycles) |
| --- | --- | --- | --- | --- | --- | --- | --- | --- | --- | --- | --- | --- | --- |
| O=C(/C=C/c1ccc(Cl)cc1)N[C@@H](Cc1ccccn1)C(=O)NCC(=O)N1CCC(Oc2cc(C(F)(F)F)ncn2)CC1 [FK330, N^2-[(2E)-3-(4-chlorophenyl)-2-propenoyl]-N-[2-oxo-2-(4-{[6-(trifluoromethyl)pyrimidin-4-yl]oxy}piperidin-1-yl)ethyl]-3-pyridin-2-yl-L-alaninamide] | 223.9±85.1 mm^3 | 54.5% | 41.7% | 955.9±231.0 mm^3 | 56.9% | 706.2±256.1 mm^3 | 81.8% | 297.9±101.4 mm^3 | 164.8±18.5 mm^3 | 63.7% | – | – | – |
| CC(=O)O[C@H]1C(=O)[C@@]2(C)[C@H]([C@H](OC(=O)c3ccccc3)[C@]3(O)C[C@H](OC(=O)[C@H](O)[C@@H](NC(=O)c4ccccc4)c4ccccc4)C(C)=C1C3(C)C)[C@]1(OC(C)=O)CO[C@@H]1C[C@@H]2O [paclitaxel, reference compound] | – | – | – | – | – | – | – | – | – | – | 492.0±48.5 mm^3 | 1640.1±902.8 mm^3 | 454.1±147.5 mm^3 |
